According to ChEMBL document CHEMBL1201861, “Genomics of Drug Sensitity in Cancer screening data, Wellcome Trust Sanger Institute”:

Columns and labels:
Test in all cases: cells
[1] = system: 8-MG-BA; type: functional, cell-based, Homo sapiens; conditions: Homo sapiens, 8-MG-BA;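 also: growth inhibition of 8-MG-BA cells, read out with a cell viability assay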
Description: SANGER: Inhibition of human 8-MG-BA cell growth in a cell viability assay.

[2] = system: SK-PN-DW; type: functional, cell-based, Homo sapiens; conditions: Homo sapiens, SK-PN-DW;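 also: growth inhibition measured with a viability assay on these cells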
Description: SANGER: Inhibition of human SK-PN-DW cell growth in a cell viability assay.

[3] = system: QIMR-WIL; type: functional, cell-based, Homo sapiens; conditions: Homo sapiens, QIMR-WIL;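 also: growth inhibition of QIMR-WIL cells, read out with a cell viability assay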
Description: SANGER: Inhibition of human QIMR-WIL cell growth in a cell viability assay.

[4] = system: SK-NEP-1; type: functional, cell-based, Homo sapiens; conditions: Homo sapiens, SK-NEP-1;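 also: growth inhibition of human SK-NEP-1 cells, read out by a cell viability assay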
Description: SANGER: Inhibition of human SK-NEP-1 cell growth in a cell viability assay.

[5] = system: NCI-H1092; type: functional, cell-based, Homo sapiens; conditions: Homo sapiens, NCI-H1092;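 also: cell growth inhibition measured with a cell viability assay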
Description: SANGER: Inhibition of human NCI-H1092 cell growth in a cell viability assay.

[6] = system: U-87 MG; type: functional, cell-based, Homo sapiens, U-87MG ATCC; conditions: Homo sapiens, U-87 MG;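 also: growth inhibition of the cells measured with a viability assay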
Description: SANGER: Inhibition of human U-87-MG cell growth in a cell viability assay.

[7] = system: LB771-HNC; type: functional, cell-based; conditions: Homo sapiens;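 also: growth inhibition of LB771-HNC human cells, read out with a cell viability assay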
Description: SANGER: Inhibition of human LB771-HNC cell growth in a cell viability assay.

[8] = system: MV4-11; type: functional, cell-based, Homo sapiens, MV-4-11; conditions: Homo sapiens, MV4-11;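 also: cell viability readout measuring growth inhibition of human MV-4-11 cells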
Description: SANGER: Inhibition of human MV-4-11 cell growth in a cell viability assay.

[9] = system: CCRF-CEM; type: functional, cell-based, Homo sapiens; conditions: Homo sapiens, CCRF-CEM;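 also: inhibition of CCRF-CEM cell growth, measured by a cell viability assay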
Description: SANGER: Inhibition of human CCRF-CEM cell growth in a cell viability assay.

[10] = system: SJSA-1; type: functional, cell-based, Homo sapiens; conditions: Homo sapiens, SJSA-1;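 also: growth inhibition of human SJSA-1 cells, read out through a cell viability measurement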
Description: SANGER: Inhibition of human SJSA-1 cell growth in a cell viability assay.

[11] = system: NCI-H720; type: functional, cell-based, Homo sapiens; conditions: Homo sapiens, NCI-H720;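 also: growth inhibition of human NCI-H720 cells determined by a cell viability assay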
Description: SANGER: Inhibition of human NCI-H720 cell growth in a cell viability assay.

[12] = system: RXF 393; type: functional, cell-based, Homo sapiens; conditions: Homo sapiens, RXF 393;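 also: growth inhibition of human RXF 393 cells, read out with a cell viability assay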
Description: SANGER: Inhibition of human RXF393 cell growth in a cell viability assay.

[13] = system: OCUB-M; type: functional, cell-based; conditions: Homo sapiens;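 also: growth inhibition of the cancer cell line, read out through a cell viability assay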
Description: SANGER: Inhibition of human OCUB-M cell growth in a cell viability assay.

[14] = system: NCI-H1355; type: functional, cell-based, Homo sapiens; conditions: Homo sapiens, NCI-H1355;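 also: growth inhibition of human NCI-H1355 cells, read out by a cell viability assay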
Description: SANGER: Inhibition of human NCI-H1355 cell growth in a cell viability assay.

[15] = system: NB6; type: functional, cell-based, Homo sapiens; conditions: Homo sapiens, NB6;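 also: growth inhibition of NB6 cells, read out by a cell viability assay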
Description: SANGER: Inhibition of human NB6 cell growth in a cell viability assay.

[16] = system: RH-1; type: functional, cell-based, Homo sapiens; conditions: Homo sapiens, RH-1;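 also: growth inhibition of human RH-1 cells, read out with a cell viability assay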
Description: SANGER: Inhibition of human RH-1 cell growth in a cell viability assay.

[17] = system: NCI-H526; type: functional, cell-based, Homo sapiens; conditions: Homo sapiens, NCI-H526;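 also: growth inhibition of the human NCI-H526 cell line, measured by a cell viability assay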
Description: SANGER: Inhibition of human NCI-H526 cell growth in a cell viability assay.

[18] = system: TE-9; type: functional, cell-based, Homo sapiens; conditions: Homo sapiens, TE-9;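 also: cell growth inhibition, measured with a cell viability readout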
Description: SANGER: Inhibition of human TE-9 cell growth in a cell viability assay.

[19] = system: SNB-75; type: functional, cell-based, Homo sapiens; conditions: Homo sapiens, SNB-75;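 also: cell viability assay measuring growth inhibition of human SNB-75 cells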
Description: SANGER: Inhibition of human SNB75 cell growth in a cell viability assay.

[20] = system: L-428; type: functional, cell-based, Homo sapiens; conditions: Homo sapiens, L-428
Description: SANGER: Inhibition of human L-428 cell growth in a cell viability assay.

[21] = system: BV-173; type: functional, cell-based, Homo sapiens; conditions: Homo sapiens, BV-173
Description: SANGER: Inhibition of human BV-173 cell growth in a cell viability assay.

[22] = system: LXF-289 cell line; type: functional, cell-based; conditions: Homo sapiens
Description: SANGER: Inhibition of human LXF-289 cell growth in a cell viability assay.

[23] = system: MHH-NB-11; type: functional, cell-based, Homo sapiens; conditions: Homo sapiens, MHH-NB-11;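 also: growth inhibition of human MHH-NB-11 cells, read out by a cell viability assay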
Description: SANGER: Inhibition of human MHH-NB-11 cell growth in a cell viability assay.

[24] = system: HCC1187; type: functional, cell-based, Homo sapiens; conditions: Homo sapiens, HCC1187;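 also: growth inhibition of HCC1187 cells, read out with a cell viability assay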
Description: SANGER: Inhibition of human HCC1187 cell growth in a cell viability assay.

[25] = system: NCI-H1299; type: functional, cell-based; conditions: Homo sapiens;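 also: growth inhibition of human NCI-H1299 cells, read out by a cell viability assay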
Description: SANGER: Inhibition of human NCI-H1299 cell growth in a cell viability assay.

[26] = system: NEC8; type: functional, cell-based, Homo sapiens; conditions: Homo sapiens, NEC8;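 also: growth inhibition of human NEC8 cells, read out by a cell viability assay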
Description: SANGER: Inhibition of human NEC8 cell growth in a cell viability assay.

[27] = system: ES5; type: functional, cell-based, Homo sapiens; conditions: Homo sapiens, ES5;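 also: growth inhibition of human ES5 cells, read out by a cell viability assay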
Description: SANGER: Inhibition of human ES5 cell growth in a cell viability assay.

[28] = system: LB1047-RCC; type: functional, cell-based, Homo sapiens; conditions: Homo sapiens, LB1047-RCC;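 also: inhibition of cell growth, determined with a cell viability assay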
Description: SANGER: Inhibition of human LB1047-RCC cell growth in a cell viability assay.

[29] = system: SW 962; type: functional, cell-based, Homo sapiens; conditions: Homo sapiens, SW 962;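 also: growth inhibition of human SW962 cells, read out by a cell viability assay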
Description: SANGER: Inhibition of human SW962 cell growth in a cell viability assay.

[30] = system: GR-ST; type: functional, cell-based, Homo sapiens; conditions: Homo sapiens, GR-ST
Description: SANGER: Inhibition of human GR-ST cell growth in a cell viability assay.

[31] = system: NB5; type: functional, cell-based, Homo sapiens; conditions: Homo sapiens, NB5;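 also: growth inhibition of NB5 cells, read out as cell viability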
Description: SANGER: Inhibition of human NB5 cell growth in a cell viability assay.

[32] = system: L-363; type: functional, cell-based, Homo sapiens; conditions: Homo sapiens, L-363
Description: SANGER: Inhibition of human L-363 cell growth in a cell viability assay.

[33] = system: D-247MG; type: functional, cell-based; conditions: Homo sapiens
Description: SANGER: Inhibition of human D-247MG cell growth in a cell viability assay.

[34] = system: HAL-01; type: functional, cell-based, Homo sapiens; conditions: Homo sapiens, HAL-01;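 also: growth inhibition of human HAL-01 cells, read out with a cell viability assay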
Description: SANGER: Inhibition of human HAL-01 cell growth in a cell viability assay.

[35] = system: MOLT-16; type: functional, cell-based, Homo sapiens; conditions: Homo sapiens, MOLT-16;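 also: growth inhibition of human MOLT-16 cells, read out with a cell viability assay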
Description: SANGER: Inhibition of human MOLT-16 cell growth in a cell viability assay.

[36] = system: TGBC1TKB; type: functional, cell-based, Homo sapiens; conditions: Homo sapiens, TGBC1TKB;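 also: growth inhibition of TGBC1TKB cells, read out by a cell viability assay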
Description: SANGER: Inhibition of human TGBC1TKB cell growth in a cell viability assay.

[37] = system: SCH; type: functional, cell-based, Homo sapiens; conditions: Homo sapiens, SCH;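 also: growth inhibition of human SCH cells, read out in a cell viability assay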
Description: SANGER: Inhibition of human SCH cell growth in a cell viability assay.

[38] = system: TE-5; type: functional, cell-based, Homo sapiens; conditions: Homo sapiens, TE-5;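 also: inhibition of cell growth, read out by a cell viability assay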
Description: SANGER: Inhibition of human TE-5 cell growth in a cell viability assay.

[39] = system: no-10; type: functional, cell-based, Homo sapiens; conditions: Homo sapiens;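 also: growth inhibition of no-10 cells, read out with a cell viability assay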
Description: SANGER: Inhibition of human no-10 cell growth in a cell viability assay.

[40] = system: GI-1; type: functional, cell-based, Homo sapiens; conditions: Homo sapiens, GI-1;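 also: growth inhibition of human GI-1 cells, measured with a cell viability readout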
Description: SANGER: Inhibition of human GI-1 cell growth in a cell viability assay.

[41] = system: PSN1; type: functional, cell-based, Homo sapiens; conditions: Homo sapiens, PSN1;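 also: suppression of growth of human PSN1 cells, read out by a cell viability assay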
Description: SANGER: Inhibition of human PSN1 cell growth in a cell viability assay.

[42] = system: KP-N-YS; type: functional, cell-based, Homo sapiens; conditions: Homo sapiens, KP-N-YS;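 also: cell viability assay measuring inhibition of cell line growth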
Description: SANGER: Inhibition of human KP-N-YS cell growth in a cell viability assay.

[43] = system: EW-18; type: functional, cell-based, Homo sapiens; conditions: Homo sapiens, EW-18;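 also: growth inhibition of EW-18 cells, read out by a cell viability assay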
Description: SANGER: Inhibition of human EW-18 cell growth in a cell viability assay.

[44] = system: OCI-AML2; type: functional, cell-based, Homo sapiens; conditions: Homo sapiens, OCI-AML2;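 also: growth inhibition of OCI-AML2 cells, read out with a cell viability assay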
Description: SANGER: Inhibition of human OCI-AML2 cell growth in a cell viability assay.

[45] = system: OVCAR-4; type: functional, cell-based, Homo sapiens; conditions: Homo sapiens, OVCAR-4;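 also: growth inhibition of human OVCAR-4 cells, measured with a cell viability assay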
Description: SANGER: Inhibition of human OVCAR-4 cell growth in a cell viability assay.

[46] = system: HCC2157; type: functional, cell-based, Homo sapiens; conditions: Homo sapiens, HCC2157;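 also: growth inhibition of the cancer cell line, read out as cell viability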
Description: SANGER: Inhibition of human HCC2157 cell growth in a cell viability assay.

[47] = system: NCI-H226; type: functional, cell-based, Homo sapiens; conditions: Homo sapiens, NCI-H226;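 also: cell viability read-out used to gauge growth inhibition of the cells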
Description: SANGER: Inhibition of human NCI-H226 cell growth in a cell viability assay.

[48] = system: SCC-15; type: functional, cell-based, Homo sapiens; conditions: Homo sapiens, SCC-15;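 also: growth inhibition of SCC-15 cells, read out with a cell viability assay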
Description: SANGER: Inhibition of human SCC-15 cell growth in a cell viability assay.

[49] = system: GAK; type: functional, cell-based, Homo sapiens; conditions: Homo sapiens, GAK;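 also: cell growth inhibition read out by a cell viability assay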
Description: SANGER: Inhibition of human GAK cell growth in a cell viability assay.

[50] = system: NCI-N87; type: functional, cell-based; conditions: Homo sapiens;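 also: growth inhibition of human NCI-N87 cells, read out with a cell viability assay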
Description: SANGER: Inhibition of human NCI-N87 cell growth in a cell viability assay.

## Nc1ccccc1NC(=O)c1ccc(CNC(=O)OCc2cccnc2)cc1 [ENTINOSTAT]
[1]
  IC50: 1.29 µM
[2]
  IC50: 0.978 µM
[3]
  IC50: 0.683 µM
[4]
  IC50: 1.2 µM
[5]
  IC50: 2.05 µM
[6]
  IC50: 3.04 µM
[7]
  IC50: > 5 µM
[8]
  IC50: 0.53 µM
[9]
  IC50: 0.747 µM
[10]
  IC50: 1.52 µM
[11]
  IC50: 2.17 µM
[12]
  IC50: > 5 µM
[13]
  IC50: 1.21 µM
[14]
  IC50: 2.12 µM
[15]
  IC50: 3.56 µM
[16]
  IC50: > 5 µM
[17]
  IC50: 0.635 µM
[18]
  IC50: 1.84 µM
[19]
  IC50: > 5 µM
[20]
  IC50: 2.49 µM
[21]
  IC50: 0.371 µM
[22]
  IC50: 0.959 µM
[23]
  IC50: 0.435 µM
[24]
  IC50: 4.9 µM
[25]
  IC50: > 5 µM
[26]
  IC50: 0.135 µM
[27]
  IC50: > 5 µM
[28]
  IC50: 1.63 µM
[29]
  IC50: > 5 µM
[30]
  IC50: 1.57 µM
[31]
  IC50: 1.66 µM
[32]
  IC50: 0.567 µM
[33]
  IC50: > 5 µM
[34]
  IC50: 1.17 µM
[35]
  IC50: 0.41 µM
[36]
  IC50: > 5 µM
[37]
  IC50: 0.403 µM
[38]
  IC50: 3.21 µM
[39]
  IC50: 1.23 µM
[40]
  IC50: 2.93 µM
[41]
  IC50: 1.42 µM
[42]
  IC50: > 5 µM
[43]; read-out: IC50
  IC50: > 5 µM
[44]
  IC50: 3.63 µM
[45]
  IC50: 1.13 µM
[46]
  IC50: 1.43 µM
[47]
  IC50: > 5 µM

## COc1ccc(N(C(=O)Oc2c(C)cccc2C)c2ccnc(Nc3ccc(N4CCN(C)CC4)cc3)n2)c(OC)c1
[1]
  IC50: > 5.12 µM
[2]
  IC50: > 5.12 µM
[3]
  IC50: > 5.12 µM
[4]
  IC50: > 5.12 µM
[5]
  IC50: > 5.12 µM
[6]
  IC50: > 5.12 µM
[7]
  IC50: > 5.12 µM
[8]
  IC50: > 5.12 µM
[9]
  IC50: > 5.12 µM
[10]
  IC50: > 5.12 µM
[11]
  IC50: > 5.12 µM
[12]
  IC50: 0.106 µM
[13]
  IC50: > 5.12 µM
[14]
  IC50: 4.88 µM
[15]
  IC50: 1.7 µM
[16]
  IC50: > 5.12 µM
[48]
  IC50: > 5.12 µM
[17]
  IC50: > 5.12 µM
[18]
  IC50: 4.39 µM
[19]
  IC50: 0.358 µM
[20]
  IC50: > 5.12 µM
[21]
  IC50: < 0.02 µM
[22]
  IC50: 1.27 µM
[23]
  IC50: > 5.12 µM
[24]
  IC50: > 5.12 µM
[26]
  IC50: > 5.12 µM
[27]
  IC50: > 5.12 µM
[28]
  IC50: 0.0759 µM
[29]
  IC50: 1.34 µM
[30]
  IC50: > 5.12 µM
[31]
  IC50: > 5.12 µM
[32]
  IC50: > 5.12 µM
[33]
  IC50: > 5.12 µM
[34]
  IC50: > 5.12 µM
[35]
  IC50: > 5.12 µM
[36]
  IC50: > 5.12 µM
[37]
  IC50: > 5.12 µM
[38]
  IC50: > 5.12 µM
[39]
  IC50: > 5.12 µM
[40]
  IC50: > 5.12 µM
[41]
  IC50: > 5.12 µM
[42]
  IC50: 4.92 µM
[43]; read-out: IC50
  IC50: > 5.12 µM
[49]
  IC50: > 5.12 µM
[44]
  IC50: > 5.12 µM
[45]
  IC50: > 5.12 µM
[46]
  IC50: > 5.12 µM
[47]
  IC50: > 5.12 µM

## Cc1ccc(NC(=O)c2ccc(CN3CCN(C)CC3)cc2)cc1Nc1nccc(-c2cccnc2)n1 [IMATINIB]
[1]
  IC50: […]
[2]
  IC50: […]
[3]
  IC50: […]
[4]
  IC50: […]
[5]
  IC50: […]
[6]
  IC50: […]
[7]
  IC50: […]
[8]
  IC50: […]
[9]
  IC50: […]
[10]
  IC50: […]
[11]
  IC50: […]
[12]
  IC50: […]
[13]
  IC50: […]
[14]
  IC50: […]
[15]
  IC50: […]
[16]
  IC50: […]
[48]
  IC50: […]
[17]
  IC50: […]
[18]
  IC50: […]
[19]
  IC50: […]
[20]
  IC50: […]
[21]
  IC50: 0.187 µM
[22]
  IC50: […]
[23]
  IC50: […]
[24]
  IC50: […]
[25]
  IC50: […]
[26]
  IC50: […]
[27]
  IC50: […]
[28]
  IC50: […]
[29]
  IC50: […]
[30]
  IC50: […]
[31]
  IC50: […]
[32]
  IC50: […]
[33]
  IC50: […]
[34]
  IC50: […]
[35]
  IC50: […]
[36]
  IC50: […]
[38]
  IC50: […]
[39]
  IC50: […]
[40]
  IC50: […]
[41]
  IC50: […]
[42]
  IC50: […]
[43]
  IC50: […]
[49]
  IC50: […]
[44]
  IC50: […]
[45]
  IC50: […]
[46]
  IC50: […]
[47]
  IC50: […]

## CO[C@@H]1[C@H](N(C)C(=O)c2ccccc2)C[C@H]2O[C@]1(C)n1c3ccccc3c3c4c(c5c6ccccc6n2c5c31)C(=O)NC4 [MIDOSTAURIN]
[48]
  IC50: > 0.512 µM
[22]
  IC50: 0.33 µM
[50]
  IC50: > 0.512 µM
[29]
  IC50: > 0.512 µM
[36]
  IC50: > 0.512 µM
[40]
  IC50: 0.319 µM
[43]; read-out: IC50
  IC50: 0.322 µM
[44]
  IC50: > 0.512 µM
